Measured values from patent publication US12173018B2, “Penicillin-binding protein inhibitors” (priority 2018, dated 2024).
Converted amounts (≈) assume the structure as drawn. Structures can show the parent of a compound that is named as a salt. Where two headings read alike, the source gives them in different places.

Key:
[1] = test system: E. coli DH5α empty pLBII vector control strain; assay: microbe, parasite or virus in culture; type: cell-based, Escherichia coli; settings: Escherichia coli, read-out: Microbiological Activity (MIC in mg/L), E. coli DH5α/pLBII
Method: (§1) Briefly, cryo-preserved bacterial cultures of challenge strains are streaked for isolation on appropriate agar medium, in this case Mueller Hinton II agar. Following incubation to allow growth of the colonies, plates are sealed with parafilm and stored refrigerated for up to two weeks. For preparation of assay inoculum and to ensure low variability, at least 5 colonies are picked from the agar plates with an inoculating loop and aseptically transferred to a culture tube containing 3 mL of Mueller-Hinton Broth (supplemented with divalent cations to required levels based on Manufacturers' certification). The broth culture is grown for 3-5 hours at 37° C. with shaking at 200 rpm. Meanwhile, 2-fold serial dilutions of test compounds are conducted in a 96 well plate with a final volume of 75 μL per well at 2-fold the final desired concentration. After the dilution plates are set up the growing cultures are then diluted in a cuvette containing MH II broth and the optical density is measured at 600 nm. The Inoculum is diluted such that 75 μL of this culture in Mueller-Hinton Broth results in a starting bacterial concentration of 5×10^5 CFU/mL when added to the dilution plates. The plates are incubated for 16-20 hours at 37° C. The MIC values are read visually as the lowest concentration well with no bacterial growth.
To determine if test compounds were affected by CTX-M15, the most abundant extended spectrum […] in clinical settings worldwide, the inhibition of the growth of an engineered strain of Escherichia coli harboring CTX-M15 was tested. This strain was constructed by cloning the gene encoding CTX-M15 into the NdeI and BamHI restriction endonuclease sites of plasmid pLBII, placing the gene(s) under the control of the Lac promoter. The constructed expression plasmid for CTX-M15 was used to transform competent E. coli DH5α cells to make the engineered strain, including an empty pLBII vector control strain. The classic cell based broth microdilution MIC assay was employed as described above with the addition of control antibiotics, known to be degraded by β-lactamases (Ceftazidime, piperacillin and piperacillin+tazobactam).

[2] = test system: engineered strain of Escherichia coli harboring CTX-M15; assay: microbe, parasite or virus in culture; type: cell-based; settings: Escherichia coli, read-out: Microbiological Activity (MIC in mg/L), E. coli DH5α/pLBII-CTX-M15, engineered strain producing CTX-M15
[3] = test system: N. gonorrhoeae ATCC 49226; assay: Liquid broth MIC, N. gonorrhoeae ATCC 49226; type: cell-based; settings: Neisseria gonorrhoeae, ATCC49226; N. gonorrhoeae ATCC 49226, liquid broth; read-out: Minimum Inhibitory Concentration, N. gonorrhoeae ATCC 49226
Procedure, shortened: (§2)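 Broth microdilution, 2-fold compound series; start inoculum 5×10^5 CFU/mL (OD600-adjusted, GC broth pH 7.2, Kellogg's suppl.). 40-42 h, 36° C, 5% CO2. MIC = lowest conc., no visible growth.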

[4] = test system: K. pneumoniae UMM; assay: microbe, parasite or virus in culture; type: cell-based; settings: Klebsiella pneumoniae; K. pneumoniae UMM producing SHV-5 and KPC-2; read-out: MIC K. pneumoniae UMM
Procedure, shortened: (§3)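 Colonies from Mueller Hinton II agar were grown 3-5 hours at 37° C in cation-supplemented broth, adjusted by OD600, then added to 2-fold compound dilutions at 5×10^5 CFU/mL. After 16-20 hours at 37° C, MICs were scored visually.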

[5] = test system: P. aeruginosa ATCC 35151; assay: microbe, parasite or virus in culture; type: cell-based; settings: Pseudomonas aeruginosa, ATCC35151; hyper-permeable P. aeruginosa ATCC 35151; read-out: MIC P. aeruginosa ATCC 35151
Procedure, shortened: as §3

[6] = test system: E. coli AG100A; assay: microbe, parasite or virus in culture; type: cell-based; settings: Escherichia coli, read-out: MIC E. coli AG100A
Procedure, shortened: as §3

[7] = test system: E. coli 901C; assay: microbe, parasite or virus in culture; type: cell-based; settings: Escherichia coli; hyper-permeable E. coli 901C, broth microdilution; read-out: MIC E. coli 901C
Procedure, shortened: as §3

[8] = test system: P. aeruginosa (ΔmexAB-oprM); assay: microbe, parasite or virus in culture; type: cell-based; settings: Pseudomonas aeruginosa, read-out: MIC P. aeruginosa ΔmexAB-OprM
Procedure, shortened: as §3

[9] = test system: E. coli D22; assay: microbe, parasite or virus in culture; type: cell-based; settings: Escherichia coli; hyper-permeable E. coli D22, broth microdilution; read-out: MIC E. coli D22
Procedure, shortened: as §3

[10] = test system: K. pneumoniae SI-117; assay: microbe, parasite or virus in culture; type: cell-based; settings: Klebsiella pneumoniae, SI117, read-out: MIC K. pneumoniae SI-117
Procedure, shortened: as §3

[11] = test system: K. pneumoniae 848844; assay: microbe, parasite or virus in culture; type: cell-based, Klebsiella pneumoniae; settings: Klebsiella pneumoniae; K. pneumoniae 848844 producing SHV-11 and KPC-2; read-out: MIC K. pneumoniae 848844
Procedure, shortened: as §3

[12] = test system: A. baumannii ATCC 19606; assay: Broth microdilution MIC, A. baumannii ATCC 19606; type: cell-based; settings: Acinetobacter baumannii
Method: (§4) To determine the ability of test compounds to potentiate the inhibition of the growth of bacterial strains, classic cell based broth microdilution minimum inhibitory concentration (MIC) assays were employed. MIC assays are performed according to CLSI methods except where otherwise noted (CLSI, 2011 and CLSI, 2009). The reference type strain E. coli ATCC 25922, the wild-type parent strain E. coli AG100, the hyper-permeable E. coli 901C and E. coli D22 and the E. coli AG100A strain lacking the acrAB efflux pump encoding genes were used to determine the ability of the PBP inhibitors to penetrate the outer membrane of gram-negative bacteria and inhibit bacterial growth. […] The P. aeruginosa PAO1, P. aeruginosa ATCC 27853 and A. baumannii ATCC 19606, along with the hyper-permeable P. aeruginosa ATCC 35151 and an engineered efflux pump-compromised strain of P. aeruginosa (ΔmexAB-oprM) were used to determine the ability of PBP inhibitors to penetrate the outer membrane of P. aeruginosa and A. baumannii and assess antibacterial activity against these important gram-negative organisms.
as §1

[13] = test system: E. coli AG100; assay: Broth microdilution MIC, E. coli AG100 (wild-type parent); type: cell-based; settings: Escherichia coli; wild-type parent E. coli AG100, broth microdilution; read-out: MIC E. coli AG100
Procedure, shortened: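 Broth microdilution in cation-supplemented Mueller-Hinton broth, 2-fold serial compound dilutions, inoculum 5×10^5 CFU/mL from 3-5 h log culture.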

[14] = test system: N. gonorrhoeae WHO F; assay: Liquid broth MIC, N. gonorrhoeae WHO F; type: cell-based; settings: Neisseria gonorrhoeae; N. gonorrhoeae WHO F, liquid broth; read-out: Minimum Inhibitory Concentration, N. gonorrhoeae WHO F
Procedure, shortened: as §2

[15] = test system: N. gonorrhoeae FA1090; assay: Liquid broth MIC, N. gonorrhoeae FA1090; type: cell-based; settings: Neisseria gonorrhoeae; N. gonorrhoeae FA1090, liquid broth; read-out: Minimum Inhibitory Concentration, N. gonorrhoeae FA1090
Procedure, shortened: as §2

[16] = test system: P. aeruginosa PAO1; assay: Broth microdilution MIC, P. aeruginosa PAO1; type: cell-based; settings: Pseudomonas aeruginosa
Method: as §4, §1

[17] = test system: E. coli ATCC 25922; assay: Broth microdilution MIC, E. coli ATCC 25922; type: cell-based; settings: Escherichia coli
Procedure, shortened: as §3

[18] = test system: N. gonorrhoeae FA19; assay: Liquid broth MIC, N. gonorrhoeae FA19; type: cell-based; settings: Neisseria gonorrhoeae; N. gonorrhoeae FA19, liquid broth; read-out: Minimum Inhibitory Concentration, N. gonorrhoeae FA19
Procedure, shortened: as §2

[19] = target: E. coli PBP3 (Escherichia coli (strain K12), UniProt P0AD68); assay: E. coli PBP3 Bocillin-FL fluorescence polarization competition binding assay
Procedure, shortened: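 FP competition: 1.5 μM PBP, 0.1 μM Bocillin-FL, cpd 0–1000 μM; 50 mM Hepes pH 8.0/300 mM NaCl/5% glycerol. Read 490/520 nm immediately after Bocillin-FL addition, 60 min. EC50 = cpd conc. lowering probe binding.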

[20] = ATCC19606, read-out: MIC A. baumannii ATCC 19606
[21] = PAO1, read-out: MIC P. aeruginosa PAO1
[22] = ATCC25922, read-out: MIC E. coli 25922
[23] = ATCC19606, A. baumannii ATCC 19606, broth microdilution, read-out: MIC A. baumannii ATCC 19606
[24] = P. aeruginosa PAO1, broth microdilution, read-out: MIC P. aeruginosa PAO1
[25] = ATCC25922, E. coli ATCC 25922, broth microdilution, read-out: MIC E. coli 25922

E. coli PBP3, sequence (P0AD68 whole entry): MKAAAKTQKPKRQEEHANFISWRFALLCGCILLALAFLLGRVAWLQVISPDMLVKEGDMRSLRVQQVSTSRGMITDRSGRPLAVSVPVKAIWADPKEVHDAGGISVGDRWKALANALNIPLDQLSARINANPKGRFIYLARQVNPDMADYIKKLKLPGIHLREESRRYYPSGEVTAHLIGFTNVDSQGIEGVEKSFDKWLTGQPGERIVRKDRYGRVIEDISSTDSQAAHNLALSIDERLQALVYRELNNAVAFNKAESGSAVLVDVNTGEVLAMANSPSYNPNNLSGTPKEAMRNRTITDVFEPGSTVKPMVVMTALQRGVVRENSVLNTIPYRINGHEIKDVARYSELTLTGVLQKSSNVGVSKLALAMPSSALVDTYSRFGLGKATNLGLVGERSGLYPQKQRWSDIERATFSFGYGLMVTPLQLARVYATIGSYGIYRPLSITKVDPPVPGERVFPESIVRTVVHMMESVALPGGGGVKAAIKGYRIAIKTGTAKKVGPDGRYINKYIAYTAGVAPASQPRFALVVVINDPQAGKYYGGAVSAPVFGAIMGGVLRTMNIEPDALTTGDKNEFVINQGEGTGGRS

Row | SMILES | MIC [1] | MIC [2] | MIC [3] | MIC [4] | MIC [5] | MIC [6] | MIC [7] | MIC [8] | MIC [9] | MIC [10] | MIC [11] | MIC [13] | MIC [14] | MIC [15] | MIC [18] | further results
1 | CCN1CCN(C(=O)NC(C)(CCO)C(=O)N[C@H]2Cc3cccc(C(=O)O)c3OB2O)C(=O)C1=O (stereo partly drawn) [Example 12, (3R)-3-(2-(4-ethyl-2,3-dioxopiperazine-1-carboxamido)-4-hydroxy-2-methylbutanamido)-2-hydroxy-3,4-dihydro-2H-benzo[e][1,2]oxaborinine-8-carboxylic acid] | > 512 mg/L | > 512 mg/L |  |  |  |  |  |  |  |  |  |  |  |  |  | 
2 | CCN1CCN(C(=O)N2CC(CN)(C(=O)N[C@H]3Cc4cccc(C(=O)O)c4OB3O)C2)C(=O)C1=O [Example 14, (R)-3-(3-(aminomethyl)-1-(4-ethyl-2,3-dioxopiperazine-1-carbonyl)azetidine-3-carboxamido)-2-hydroxy-3,4-dihydro-2H-benzo[e][1,2]oxaborinine-8-carboxylic acid, trifluoroacetic acid salt] | > 512 mg/L | > 512 mg/L |  |  |  |  |  |  |  |  |  |  |  |  |  | 
3 | CCN1CCN(C(=O)NCC2(C(=O)N[C@H]3Cc4cccc(C(=O)O)c4OB3O)CNC2)C(=O)C1=O [Example 53, (R)-3-(3-((4-ethyl-2,3-dioxopiperazine-1-carboxamido)methyl)azetidine-3-carboxamido)-2-hydroxy-3,4-dihydro-2H-benzo[e][1,2]oxaborinine-8-carboxylic acid, trifluoroacetic acid salt] | > 512 mg/L |  |  |  |  |  |  |  |  |  |  |  |  |  |  | 
4 | CS(=O)(=O)N1CCN(C(=O)NC(C(=O)N[C@H]2Cc3cccc(C(=O)O)c3OB2O)c2ccc(O)c(O)c2Cl)C1=O (stereo partly drawn) [Example 58, (3R)-3-(2-(2-chloro-3,4-dihydroxyphenyl)-2-(3-(methylsulfonyl)-2-oxoimidazolidine-1-carboxamido)acetamido)-2-hydroxy-3,4-dihydro-2H-benzo[e][1,2]oxaborinine-8-carboxylic acid] |  | 32 to 64 mg/L (≈ 53.6 to 107 µM) | 4 to 8 µg/mL (≈ 6.7 to 13.4 µM) | 8 to 16 µg/mL | < 0.25 µg/mL | 8 to 16 µg/mL | 2 to 4 µg/mL | < 0.25 µg/mL | 8 to 16 µg/mL | > 128 µg/mL | 8 to 16 µg/mL | 32 to 64 µg/mL | 1 to 2 µg/mL (≈ 1.68 to 3.35 µM) | 4 to 8 µg/mL (≈ 6.7 to 13.4 µM) | 4 to 8 µg/mL (≈ 6.7 to 13.4 µM) | MIC [12, 20]: 2 to 4 µg/mL; MIC [16, 21]: 8 to 16 µg/mL; MIC [17, 22]: 32 to 64 µg/mL
5 | NS(=O)(=O)c1ccc([C@@H](NC(=O)N2CCN(CCF)C(=O)C2=O)C(=O)N[C@H]2Cc3cccc(C(=O)O)c3OB2O)cc1O [Example 170, (R)-3-((R)-2-(4-(2-fluoroethyl)-2,3-dioxopiperazine-1-carboxamido)-2-(3-hydroxy-4-sulfamoylphenyl)acetamido)-2-hydroxy-3,4-dihydro-2H-benzo[e][1,2]oxaborinine-8-carboxylic acid] |  |  | 4 to 8 µg/mL (≈ 6.44 to 12.9 µM) | 8 to 16 µg/mL | < 0.25 µg/mL | 2 to 4 µg/mL | < 0.25 µg/mL | 8 to 16 µg/mL | 0.5 to 1 µg/mL | 32 to 64 µg/mL | 32 to 64 µg/mL | 8 to 16 µg/mL | < 0.125 µg/mL | 0.25 to 0.5 µg/mL (≈ 0.402 to 0.805 µM) | 4 to 8 µg/mL (≈ 6.44 to 12.9 µM) | MIC [12, 20]: > 128 µg/mL; MIC [16, 21]: > 128 µg/mL; MIC [17, 22]: 8 to 16 µg/mL
6 | NCCN1CCN(C(=O)N[C@@H](C(=O)N[C@H]2Cc3cccc(C(=O)O)c3OB2O)c2ccc(O)c(O)c2Cl)C(=O)C1=O [Example 220, (R)-3-((R)-2-(4-(2-aminoethyl)-2,3-dioxopiperazine-1-carboxamido)-2-(2-chloro-3,4-dihydroxyphenyl)acetamido)-2-hydroxy-3,4-dihydro-2H-benzo[e][1,2]oxaborinine-8-carboxylic acid] |  |  | 16 to 32 µg/mL (≈ 27.1 to 54.3 µM) | 0.5 to 1 µg/mL | < 0.25 µg/mL | 0.5 to 1 µg/mL | 0.5 to 1 µg/mL | < 0.25 µg/mL | 0.5 to 1 µg/mL | 2 to 4 µg/mL | 0.5 to 1 µg/mL | 0.5 to 1 µg/mL | 1 to 2 µg/mL (≈ 1.7 to 3.39 µM) | 4 to 8 µg/mL (≈ 6.78 to 13.6 µM) | > 64 µg/mL | MIC [12, 23]: < 0.25 µg/mL; MIC [16, 24]: 0.5 to 1 µg/mL; MIC [17, 25]: 8 to 16 µg/mL
7 | O=C(O)c1cccc2c1OB(O)[C@@H](NC(=O)C(NC(=O)N1C[C@H]3CCCN3C(=O)C1=O)c1ccc(O)c(O)c1Cl)C2 (stereo partly drawn) [Example 232, (3R)-3-(2-(2-chloro-3,4-dihydroxyphenyl)-2-((R)-3,4-dioxooctahydropyrrolo[1,2-a]pyrazine-2-carboxamido)acetamido)-2-hydroxy-3,4-dihydro-2H-benzo[e][1,2]oxaborinine-8-carboxylic acid] |  |  |  | 32 to 64 µg/mL | < 0.25 µg/mL | 8 to 16 µg/mL | 8 to 16 µg/mL | < 0.25 µg/mL | 8 to 16 µg/mL | 32 to 64 µg/mL | 8 to 16 µg/mL | 8 to 16 µg/mL |  |  |  | MIC [12, 23]: > 128 µg/mL; EC50 [19]: 30 to 500 µM; MIC [16, 24]: 32 to 64 µg/mL; MIC [17, 25]: > 128 µg/mL
